From paper PMC4548482 (Neuropharmacology, 2015)

Legend:
human α3β4 nAChRs = target: T1, human α3β4 nAChRs (Homo sapiens, UniProt P30926+P32297); assay: Two-electrode voltage-clamp recording, human α3β4 nAChRs in Xenopus oocytes; assay type: cell-based; design: concentration or dose not given beside the values; conditions: inhibition of agonist-evoked responses, mean ± SEM
T1 construct: expressed in transfected cells; host or cells: Xenopus laevis oocytes
Excerpt: (§1) All plasmid constructs used in this study have been described previously. These include plasmids containing cDNAs encoding human α3, α4, α7, β2 and β4 nAChR subunits in pSP64GL ([Broadbent et al., 2006]); rat α7 nAChR subunit in pcDNA3 ([Cooper and Millar, 1997]); α7/5-HT3A subunit chimera (containing the rat α7 N-terminal domain and mouse 5-HT3A transmembrane and C-terminal domain) in pcDNA3 ([Cooper and Millar, 1998]); human RIC-3 in pRK5 ([Lansdell et al., 2005]) and mouse 5-HT3A ([Maricq et al., 1991]) in pRK5.
(§2) Oocytes were isolated from adult female Xenopus laevis following procedures that have been approved by UCL's Biological Services Management Group and the UK Home Office. Oocytes were defolliculated as described previously ([Young et al., 2007]) by treatment with collagenase (2 mg/ml; Worthington Biochemicals, Freehold, NJ) in calcium-free Barth's solution containing 88 mM NaCl, 2.4 mM NaHCO3, 1 mM KCl, 0.82 mM MgSO4, and 15 mM Tris, pH 7.5. Heterologous expression was achieved by injection of wild-type or mutated α7 cRNA (6–12 ng) into oocyte cytoplasm. Oocytes were injected in a volume of 20–30 nl using a Drummond variable volume microinjector. After injection, oocytes were incubated at 18 °C in a calcium-containing Barth's solution (composition, as above, but with 0.77 mM CaCl2) supplemented with antibiotics (100 units/ml penicillin, 100 μg/ml streptomycin, 4 μg/ml kanamycin, and 50 μg/ml tetracycline). Experiments were performed on oocytes after 3–5 days of incubation. […] Two-electrode voltage-clamp recordings were performed (with the oocyte membrane potential held at −60 mV), as described previously ([Gill et al., 2012; Young et al., 2007]).

human α7 nAChRs [1] = target: T2, human α7 nAChRs (Homo sapiens, UniProt P36544); assay: Two-electrode voltage-clamp recording, wild-type human α7 nAChRs expressed in Xenopus oocytes; assay type: cell-based; conditions: for Fold potentiation: Human α7, maximum fold potentiation of responses to an EC50 of acetylcholine (100 μM), mean ± SEM; for Imax: Wild-type α7, normalised to the maximum response to acetylcholine; for Effect on rate of desensitisation of acetylcholine-evoked responses: wild-type α7, acetylcholine 100 μM, pre- and co-application of PAM; for Desensitisation after receptor reactivation: acetylcholine co-applied with compound, period of 30 s; for Total net charge transfer relative to initial application of acetylcholine alone: measured during a 30 s application of compound in continued presence of acetylcholine (100 μM)
T2 construct: expressed in transfected cells; host or cells: Xenopus laevis oocytes (cRNA injection)
T2 sequence (P36544 23-502): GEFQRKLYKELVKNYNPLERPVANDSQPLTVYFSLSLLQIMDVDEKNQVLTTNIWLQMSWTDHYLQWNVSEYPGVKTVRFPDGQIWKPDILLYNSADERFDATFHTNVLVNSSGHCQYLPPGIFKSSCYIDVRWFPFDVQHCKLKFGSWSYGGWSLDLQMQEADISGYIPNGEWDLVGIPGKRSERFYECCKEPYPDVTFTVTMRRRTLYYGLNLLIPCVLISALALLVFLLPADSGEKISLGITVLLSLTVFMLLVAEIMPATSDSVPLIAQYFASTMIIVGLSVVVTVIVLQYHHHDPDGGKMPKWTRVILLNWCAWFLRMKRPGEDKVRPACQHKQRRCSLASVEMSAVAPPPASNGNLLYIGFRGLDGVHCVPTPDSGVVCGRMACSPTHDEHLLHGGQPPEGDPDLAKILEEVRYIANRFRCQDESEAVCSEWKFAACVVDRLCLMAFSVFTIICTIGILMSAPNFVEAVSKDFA
Procedure: All plasmid constructs used in this study have been described previously.
(§3) Oocytes were isolated from adult female Xenopus laevis following procedures that have been approved by UCL's Biological Services Management Group and the UK Home Office. […] Heterologous expression was achieved by injection of wild-type or mutated α7 cRNA (6–12 ng) into oocyte cytoplasm. Oocytes were injected in a volume of 20–30 nl using a Drummond variable volume microinjector. […] Experiments were performed on oocytes after 3–5 days of incubation.

α7 L247T nAChRs = target: T3, α7 L247T nAChRs (Homo sapiens, UniProt P36544, L270T); assay: Two-electrode voltage-clamp recording, human α7 nAChRs containing the L247T mutation in Xenopus oocytes; assay type: cell-based; conditions: α7 L247T; for nH (Hill coefficient) / EC50: mean ± SEM; for EC50: read-out: EC50 (agonist); for Imax: normalised to the maximum response to acetylcholine
T3 construct: expressed in transfected cells; host or cells: Xenopus laevis oocytes (cRNA injection)
T3 sequence (P36544 23-502 L270T): as the sequence (P36544 23-502) above, with L248T counted along it
Procedure: (§4) Site-directed mutagenesis was performed on human nAChR α7 subunit cDNA in plasmid pSP64GL using the QuikChange mutagenesis kit (Stratagene) and verified by nucleotide sequencing. Plasmid pSP64GL containing wild-type or mutated human α7 cDNA was linearized with BamHI and purified with QIAQuik PCR purification kit (Qiagen). In vitro synthesis of cRNA was performed using mMessage mMachine SP6 transcription kit (Life Technologies).
as §3

human α4β2 nAChRs = target: T4, human α4β2 nAChRs (Homo sapiens, UniProt P17787+P43681); assay: Two-electrode voltage-clamp recording, human α4β2 nAChRs in Xenopus oocytes; assay type: cell-based; design: concentration or dose not given beside the values; conditions: inhibition of agonist-evoked responses, mean ± SEM
T4 construct: expressed in transfected cells; host or cells: Xenopus laevis oocytes
T4 sequence (P43681 29-627 limits assumed): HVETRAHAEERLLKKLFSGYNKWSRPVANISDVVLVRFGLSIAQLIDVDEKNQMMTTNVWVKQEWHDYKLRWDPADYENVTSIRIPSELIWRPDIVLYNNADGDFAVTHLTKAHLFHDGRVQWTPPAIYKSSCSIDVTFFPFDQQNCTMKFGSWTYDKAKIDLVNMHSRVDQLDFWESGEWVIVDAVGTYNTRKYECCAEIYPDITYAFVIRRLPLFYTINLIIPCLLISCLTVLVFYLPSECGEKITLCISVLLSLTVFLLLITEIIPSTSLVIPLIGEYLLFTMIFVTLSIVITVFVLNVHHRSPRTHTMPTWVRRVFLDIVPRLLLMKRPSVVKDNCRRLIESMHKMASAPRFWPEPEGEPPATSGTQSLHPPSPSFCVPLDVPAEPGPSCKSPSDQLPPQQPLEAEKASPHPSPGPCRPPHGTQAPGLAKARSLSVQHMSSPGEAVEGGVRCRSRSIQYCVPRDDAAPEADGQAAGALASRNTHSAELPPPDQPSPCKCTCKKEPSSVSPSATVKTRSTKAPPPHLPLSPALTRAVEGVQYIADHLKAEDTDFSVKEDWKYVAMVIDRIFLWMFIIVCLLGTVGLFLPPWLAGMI
T4 sequence (P17787 26-502): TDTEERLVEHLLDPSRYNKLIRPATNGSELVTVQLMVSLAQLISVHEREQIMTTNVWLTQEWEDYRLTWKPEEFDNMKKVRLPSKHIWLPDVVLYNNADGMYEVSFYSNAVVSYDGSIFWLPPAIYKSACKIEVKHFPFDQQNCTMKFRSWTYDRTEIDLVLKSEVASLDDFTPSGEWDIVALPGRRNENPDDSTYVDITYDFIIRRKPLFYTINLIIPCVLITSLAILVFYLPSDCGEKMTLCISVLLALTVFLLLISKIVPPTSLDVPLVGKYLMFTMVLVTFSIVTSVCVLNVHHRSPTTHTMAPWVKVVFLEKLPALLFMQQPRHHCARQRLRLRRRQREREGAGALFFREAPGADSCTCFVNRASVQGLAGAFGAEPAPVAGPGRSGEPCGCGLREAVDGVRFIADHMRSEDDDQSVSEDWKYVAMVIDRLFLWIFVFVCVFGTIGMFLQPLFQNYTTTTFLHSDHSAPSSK
Excerpt: as §1, §2

α7 M260L nAChRs = target: T5, α7 M260L nAChRs (Homo sapiens, UniProt P36544, M283L); assay: Two-electrode voltage-clamp recording, human α7 nAChRs containing the M260L mutation in Xenopus oocytes; assay type: cell-based; conditions: for Fold potentiation (maximum peak response compared to acetylcholine alone): acetylcholine 100 μM, pre- and co-application of modulator (10 μM); for Agonist effect on M260L receptors: compound applied alone; for Imax: normalised to the maximum response to acetylcholine
T5 construct: expressed in transfected cells; host or cells: Xenopus laevis oocytes (cRNA injection)
T5 sequence (P36544 23-502 M283L): as the sequence (P36544 23-502) above, with M261L counted along it
Procedure: as §4, §3

human α7 nAChRs [2] = target: T2, human α7 nAChRs; assay type: binding; conditions: [3H]-α-bungarotoxin 1 nM; tsA201 cells
mouse 5-HT3A = target: T6, mouse 5-HT3A (Mus musculus, UniProt P23979); assay: Two-electrode voltage-clamp recording, mouse 5-HT3ARs in Xenopus oocytes; assay type: cell-based; design: concentration or dose not given beside the values; conditions: inhibition of agonist-evoked responses, mean ± SEM
T6 construct: expressed in transfected cells; host or cells: Xenopus laevis oocytes
T6 sequence (P23979 24-489): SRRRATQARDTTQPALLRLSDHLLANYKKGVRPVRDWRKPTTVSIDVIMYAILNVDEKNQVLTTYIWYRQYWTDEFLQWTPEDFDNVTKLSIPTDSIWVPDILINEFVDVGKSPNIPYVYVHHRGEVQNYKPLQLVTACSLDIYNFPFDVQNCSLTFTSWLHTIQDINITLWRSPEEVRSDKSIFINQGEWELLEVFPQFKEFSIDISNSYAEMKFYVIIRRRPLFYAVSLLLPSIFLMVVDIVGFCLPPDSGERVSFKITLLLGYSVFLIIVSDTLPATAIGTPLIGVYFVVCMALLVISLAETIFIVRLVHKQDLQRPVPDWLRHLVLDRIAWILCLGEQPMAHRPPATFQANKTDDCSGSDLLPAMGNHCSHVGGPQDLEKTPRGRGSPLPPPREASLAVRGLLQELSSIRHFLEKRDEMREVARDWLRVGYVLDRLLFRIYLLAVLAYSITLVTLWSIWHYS
Excerpt: as §1, §2

[3] = target: T7, α7/5-HT3A subunit chimera (rat α7 N-terminal domain, mouse 5-HT3A transmembrane and C-terminal domain) (UniProt P23979+Q05941, M226I/T225I); assay: Two-electrode voltage-clamp recording, α7/5-HT3A subunit chimera in Xenopus oocytes; assay type: cell-based; design: concentration or dose not given beside the values; conditions: α7/5-HT3A chimera; inhibition of agonist-evoked responses; mean ± SEM
T7 construct: containing the extracellular/N-terminal domain of the rat α7 nAChR subunit; the transmembrane/C-terminal domain of the mouse 5-HT3A subunit; expressed in transfected cells; host or cells: Xenopus laevis oocytes
T7 sequence (Q05941+P23979 fused Q05941:T225I/Q05941:M226I): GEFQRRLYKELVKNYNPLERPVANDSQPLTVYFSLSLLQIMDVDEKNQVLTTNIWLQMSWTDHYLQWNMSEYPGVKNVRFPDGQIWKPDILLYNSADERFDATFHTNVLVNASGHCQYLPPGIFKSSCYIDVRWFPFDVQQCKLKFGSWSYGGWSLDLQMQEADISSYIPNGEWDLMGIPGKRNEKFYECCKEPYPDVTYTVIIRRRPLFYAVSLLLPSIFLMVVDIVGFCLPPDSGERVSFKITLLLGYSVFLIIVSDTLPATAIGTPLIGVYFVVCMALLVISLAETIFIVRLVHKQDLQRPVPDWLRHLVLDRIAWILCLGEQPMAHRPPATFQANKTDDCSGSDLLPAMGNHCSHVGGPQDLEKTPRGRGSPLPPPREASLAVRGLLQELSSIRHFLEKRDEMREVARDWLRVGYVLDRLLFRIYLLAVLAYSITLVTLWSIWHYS
Excerpt: as §1, §2

rat α7 nAChRs = target: T8, rat α7 nAChRs (Rattus norvegicus, UniProt Q05941); assay: Two-electrode voltage-clamp recording, rat α7 nAChRs in Xenopus oocytes; assay type: cell-based; conditions: mean ± SEM
T8 construct: expressed in transfected cells; host or cells: Xenopus laevis oocytes
T8 sequence (Q05941 23-502): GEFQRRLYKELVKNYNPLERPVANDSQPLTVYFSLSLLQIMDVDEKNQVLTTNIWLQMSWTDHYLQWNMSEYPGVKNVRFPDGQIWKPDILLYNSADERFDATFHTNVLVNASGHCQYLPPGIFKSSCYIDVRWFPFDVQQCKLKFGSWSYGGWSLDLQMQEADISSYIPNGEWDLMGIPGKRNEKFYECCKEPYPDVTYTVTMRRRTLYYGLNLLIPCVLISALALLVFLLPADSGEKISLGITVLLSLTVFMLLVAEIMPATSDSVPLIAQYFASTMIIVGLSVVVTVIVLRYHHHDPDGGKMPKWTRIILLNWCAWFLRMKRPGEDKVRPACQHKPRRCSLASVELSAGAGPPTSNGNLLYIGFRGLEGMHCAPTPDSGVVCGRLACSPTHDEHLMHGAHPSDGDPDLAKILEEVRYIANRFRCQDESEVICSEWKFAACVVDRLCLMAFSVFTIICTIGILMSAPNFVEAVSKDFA
Excerpt: as §1, §2

[4] = wild-type α7 desensitised by continued acetylcholine (100 μM), compound 10 μM
[5] = M260L α7, type I PAM 10 μM pre-applied for 10 s then co-applied, n = 3

T1 sequence (P32297 32-505): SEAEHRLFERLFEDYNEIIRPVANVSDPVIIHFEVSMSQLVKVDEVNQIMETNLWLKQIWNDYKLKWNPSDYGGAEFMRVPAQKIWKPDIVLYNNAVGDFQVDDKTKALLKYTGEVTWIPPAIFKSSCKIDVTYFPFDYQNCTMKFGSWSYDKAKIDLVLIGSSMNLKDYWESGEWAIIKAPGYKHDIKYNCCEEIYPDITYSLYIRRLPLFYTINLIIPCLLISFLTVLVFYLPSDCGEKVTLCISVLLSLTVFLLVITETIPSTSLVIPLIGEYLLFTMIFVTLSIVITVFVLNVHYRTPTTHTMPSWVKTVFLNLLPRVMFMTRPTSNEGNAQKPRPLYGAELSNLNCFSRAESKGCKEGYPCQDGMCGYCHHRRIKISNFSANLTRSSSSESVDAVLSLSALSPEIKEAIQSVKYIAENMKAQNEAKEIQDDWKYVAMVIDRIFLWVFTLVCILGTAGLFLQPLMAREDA
T1 sequence (P30926 22-498): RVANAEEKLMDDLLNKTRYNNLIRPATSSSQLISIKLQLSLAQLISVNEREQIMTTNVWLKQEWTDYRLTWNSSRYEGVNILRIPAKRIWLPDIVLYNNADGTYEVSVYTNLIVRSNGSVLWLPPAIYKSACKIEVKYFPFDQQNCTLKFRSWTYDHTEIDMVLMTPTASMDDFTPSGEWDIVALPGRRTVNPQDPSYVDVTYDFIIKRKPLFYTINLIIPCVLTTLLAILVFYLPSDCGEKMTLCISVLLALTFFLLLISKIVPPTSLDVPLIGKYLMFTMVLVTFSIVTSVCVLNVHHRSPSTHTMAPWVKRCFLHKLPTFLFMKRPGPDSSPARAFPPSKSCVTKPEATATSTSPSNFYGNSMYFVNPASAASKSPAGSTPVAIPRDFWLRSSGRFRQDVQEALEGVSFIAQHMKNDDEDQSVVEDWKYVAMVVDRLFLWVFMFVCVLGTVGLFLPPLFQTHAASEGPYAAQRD

Structure (SMILES)	% Inhibition (human α3β4 nAChRs) [%]	Fold potentiation (human α7 nAChRs [1]) [fold]	Imax (human α7 nAChRs [1])	Effect on rate of desensitisation of acetylcholine-evoked responses (human α7 nAChRs [1])	Recovery from desensitisation (reactivation of desensitised receptors) (human α7 nAChRs [1]; [4])	melting point [°C]	nH (Hill coefficient) (α7 L247T nAChRs)	EC50 (α7 L247T nAChRs) [µM]	Imax (α7 L247T nAChRs)	% Inhibition (human α4β2 nAChRs) [%]	Fold potentiation (maximum peak response compared to acetylcholine alone) (α7 M260L nAChRs; M260L α7) [fold]	Agonist effect on M260L receptors (α7 M260L nAChRs)	Imax (α7 M260L nAChRs; α7 M260L)	Displacement of [3H]-α-bungarotoxin binding (human α7 nAChRs [2])	% Inhibition (mouse 5-HT3A) [%]	% Inhibition [3] [%]	Fold potentiation (rat α7 nAChRs) [fold]	Desensitisation after receptor reactivation (human α7 nAChRs [1])	Total net charge transfer relative to initial application of acetylcholine alone (human α7 nAChRs [1]) [fold]	Response on reactivation of desensitised receptors as % of the response to 100 μM acetylcholine (human α7 nAChRs [1]; [4]) [%]	other results
COc1ccc(-c2nc(-c3ccc(Br)cc3)nn2-c2ccc(S(N)(=O)=O)cc2)cc1 [TBS-346, 4-(3-(4-bromophenyl)-5-(4-methoxyphenyl)-1H-1,2,4-triazol-1-yl)benzenesulfonamide]	68.4 ± 3.0	10.5 ± 2.5	0.0 ± 0.0	minimal changes to desensitisation	no detectable responses	290 to 294	1.7 ± 0.3	0.1 ± 0.04	0.9 ± 0.1	23.1 ± 5.7	2.8 ± 0.6	no agonist effect	0.0 ± 0.0	no significant displacement	30.8 ± 15.5	13.4 ± 7.7	8.7 ± 5.3				Block of agonist responses to TBS-516 (10 μM) (α7 M260L nAChRs; [5]): 83.4 ± 4.1%; Block of agonist responses to TQS (10 μM) (α7 M260L nAChRs; [5]): 95.7 ± 1.1%
NS(=O)(=O)c1ccc(-n2nc(-c3ccc(Br)cc3)nc2-c2ccccc2)cc1 [TBS-345, 4-(3-(4-bromophenyl)-5-phenyl-1H-1,2,4-triazol-1-yl)benzenesulfonamide]	53.7 ± 18.3	8.8 ± 1.5		intermediate between those of classical type I and type II PAMs	caused recovery from desensitisation	182 to 186				20.1 ± 19.0	6.2 ± 1.2	no agonist effect		no significant displacement	18.3 ± 13.3	47.3 ± 10.1	10.9 ± 0.73	no desensitisation was observed	12 ± 2	23.0 ± 2.1	
NS(=O)(=O)c1ccc(-n2nc(-c3ccc(Br)cc3)nc2Cc2ccccc2)cc1 [TBS-516, 4-(5-benzyl-3-(4-bromophenyl)-1H-1,2,4-triazol-1-yl)benzenesulfonamide]	31.1 ± 0.6	11.3 ± 3.1	0.0 ± 0.0	dramatic slowing of desensitisation	caused recovery from desensitisation	203 to 205	2.5 ± 0.3	0.2 ± 0.04	1.1 ± 0.1	1.7 ± 0.4	8.0 ± 3.1	converted into agonists	3.7 ± 0.6	no significant displacement	10.4 ± 7.5	9.2 ± 12.8	3.6 ± 1.0	no desensitisation was observed	250 ± 71		Response on reactivation of desensitised receptors relative to response to 100 μM acetylcholine (human α7 nAChRs [1]; [4]): 3.2 ± 0.9 fold; nH (Hill coefficient) (α7 M260L nAChRs; α7 M260L, mean ± SEM): 1.8 ± 0.3; EC50 (α7 M260L nAChRs; α7 M260L, mean ± SEM, read-out: EC50 (agonist)): 8.9 ± 2.5 µM
NS(=O)(=O)c1ccc(-n2nc(-c3ccc(Br)cc3)nc2CCc2ccccc2)cc1 [TBS-556, 4-(3-(4-bromophenyl)-5-phenethyl-1H-1,2,4-triazol-1-yl)benzenesulfonamide]	16 ± 13	4.7 ± 0.2		intermediate between those of classical type I and type II PAMs	caused recovery from desensitisation	184 to 186				3.2 ± 0.9	6.6 ± 1.0	converted into agonists		no significant displacement	10 ± 1.9	1.0 ± 1.0	4.3 ± 0.6	no desensitisation was observed	27 ± 6	57.3 ± 10.1	
